Results from patent US20210255193A1, “LYSINE REACTIVE PROBES AND USES THEREOF” (The Scripps Research Institute, priority 2017, published 2021).
Blank lines part the entries; values can stand above or below the molecule they belong to.

Experiments:
Assay in all cases: competitive isoTOP-ABPP
Format in all cases: binding
[1] = target: T1, REEP5 Receptor expression-enhancing protein 5 (Homo sapiens, UniProt Q00765)
T1 construct: isoTOP-ABPP experiments performed in cell lysates (in vitro); endogenous in cells; host or cells: soluble proteome of human cancer cell lines (MDA-MB-231, Ramos, Jurkat)
T1 sequence (Q00765 whole entry): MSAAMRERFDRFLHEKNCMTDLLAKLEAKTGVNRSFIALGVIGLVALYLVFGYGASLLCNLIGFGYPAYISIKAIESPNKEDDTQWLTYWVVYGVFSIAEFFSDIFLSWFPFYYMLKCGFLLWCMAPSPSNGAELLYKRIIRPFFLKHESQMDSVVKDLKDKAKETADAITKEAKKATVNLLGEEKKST
Summary of the method: (§1)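 Fragments at 50 μM (activated esters) or 100 μM (guanidinylating agents) were incubated with 0.5 ml lysate before probe labeling. After 0.1 mM STP-alkyne for 1 h, samples were clicked to isotopically distinct TEV tags, and R taken as DMSO-over-compound MS1 peak-area ratio.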

[2] = target: T2, CCNA2 Cyclin-A2 (Homo sapiens, UniProt P20248); conditions: 50 uM, in vitro
T2 construct: isoTOP-ABPP experiments performed in cell lysates (in vitro); endogenous in cells; host or cells: soluble proteome of human cancer cell lines (MDA-MB-231; Ramos and Jurkat also prepared)
T2 sequence (P20248 whole entry): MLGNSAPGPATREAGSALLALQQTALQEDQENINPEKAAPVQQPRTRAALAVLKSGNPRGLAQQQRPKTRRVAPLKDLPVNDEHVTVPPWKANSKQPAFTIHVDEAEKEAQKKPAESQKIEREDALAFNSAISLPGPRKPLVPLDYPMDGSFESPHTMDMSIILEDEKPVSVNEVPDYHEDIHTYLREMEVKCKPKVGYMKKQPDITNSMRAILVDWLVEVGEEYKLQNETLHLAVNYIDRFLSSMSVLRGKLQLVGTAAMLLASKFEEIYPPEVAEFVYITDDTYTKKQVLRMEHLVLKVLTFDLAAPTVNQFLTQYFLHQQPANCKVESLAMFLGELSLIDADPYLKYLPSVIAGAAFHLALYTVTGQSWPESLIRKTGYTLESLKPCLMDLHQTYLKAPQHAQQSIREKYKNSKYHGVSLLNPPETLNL
Summary of the method: as §1

[3] = target: T3, OAT Ornithine aminotransferase, mitochondrial (Homo sapiens, UniProt P04181); conditions: for isoTOP-ABPP reactivity ratio at lysine P04181_K66: 50 uM, 231 sol, in vitro
T3 construct: isoTOP-ABPP experiments performed in cell lysates (in vitro); endogenous in cells; host or cells: MDA-MB-231 soluble lysate
T3 sequence (P04181 26-439): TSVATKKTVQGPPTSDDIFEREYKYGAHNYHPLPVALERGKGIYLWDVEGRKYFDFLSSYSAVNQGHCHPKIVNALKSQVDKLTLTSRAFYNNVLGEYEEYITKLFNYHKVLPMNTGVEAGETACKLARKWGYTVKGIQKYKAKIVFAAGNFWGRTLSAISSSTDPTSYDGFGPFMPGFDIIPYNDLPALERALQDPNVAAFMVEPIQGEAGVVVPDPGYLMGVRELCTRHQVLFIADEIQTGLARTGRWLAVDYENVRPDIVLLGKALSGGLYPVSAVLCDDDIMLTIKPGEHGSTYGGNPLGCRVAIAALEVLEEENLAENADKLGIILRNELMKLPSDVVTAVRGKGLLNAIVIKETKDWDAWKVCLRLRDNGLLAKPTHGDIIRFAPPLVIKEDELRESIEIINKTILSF
Summary of the method: as §1

[4] = target: T4, IDH3B Isocitrate dehydrogenase (Homo sapiens, UniProt O43837)
T4 construct: isoTOP-ABPP experiments performed in cell lysates (in vitro); endogenous in cells; host or cells: MDA-MB-231 soluble lysate
T4 sequence (O43837 35-385): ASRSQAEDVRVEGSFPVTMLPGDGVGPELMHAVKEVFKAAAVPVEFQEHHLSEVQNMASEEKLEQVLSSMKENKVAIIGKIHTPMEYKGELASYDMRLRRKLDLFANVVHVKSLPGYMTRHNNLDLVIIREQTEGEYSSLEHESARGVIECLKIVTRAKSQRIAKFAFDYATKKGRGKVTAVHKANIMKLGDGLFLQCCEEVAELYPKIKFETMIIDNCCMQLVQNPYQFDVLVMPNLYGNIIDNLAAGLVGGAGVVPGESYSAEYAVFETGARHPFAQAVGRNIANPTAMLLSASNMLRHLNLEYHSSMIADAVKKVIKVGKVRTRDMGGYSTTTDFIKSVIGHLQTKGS
Summary of the method: as §1

[5] = target: T5, CCDC173 Coiled-coil domain-containing protein 173 (Homo sapiens, UniProt Q0VFZ6); conditions: 50 uM, in vitro
T5 construct: isoTOP-ABPP experiments performed in cell lysates (in vitro); endogenous in cells; host or cells: soluble proteome of human cancer cell lines (MDA-MB-231, Ramos, Jurkat)
T5 sequence (Q0VFZ6 whole entry, the tested form may be a part): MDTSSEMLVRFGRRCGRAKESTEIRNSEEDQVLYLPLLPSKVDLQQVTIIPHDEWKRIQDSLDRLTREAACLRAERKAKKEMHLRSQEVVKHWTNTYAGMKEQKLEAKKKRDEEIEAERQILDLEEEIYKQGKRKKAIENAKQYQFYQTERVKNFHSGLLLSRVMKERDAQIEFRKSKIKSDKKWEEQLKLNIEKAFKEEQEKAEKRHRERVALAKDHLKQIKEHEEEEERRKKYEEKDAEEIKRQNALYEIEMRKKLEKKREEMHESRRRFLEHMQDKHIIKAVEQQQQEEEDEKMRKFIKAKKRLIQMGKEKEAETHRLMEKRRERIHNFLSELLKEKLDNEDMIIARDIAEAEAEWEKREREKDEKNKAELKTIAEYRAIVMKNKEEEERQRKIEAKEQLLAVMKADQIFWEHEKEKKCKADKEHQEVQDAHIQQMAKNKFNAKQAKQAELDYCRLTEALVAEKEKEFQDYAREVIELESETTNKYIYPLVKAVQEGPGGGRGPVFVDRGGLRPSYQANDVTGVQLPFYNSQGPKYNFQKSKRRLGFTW
Summary of the method: as §1

[6] = target: T6, F3 Tissue factor (Homo sapiens, UniProt P13726); conditions: for isoTOP-ABPP ratio (R) at liganded lysine P13726_K279: 50 uM, in vitro, sol, 231
T6 construct: isoTOP-ABPP experiments performed in cell lysates (in vitro); endogenous in cells; host or cells: soluble proteome of human cancer cell lines (MDA-MB-231; Ramos and Jurkat also prepared)
T6 sequence (P13726 33-295): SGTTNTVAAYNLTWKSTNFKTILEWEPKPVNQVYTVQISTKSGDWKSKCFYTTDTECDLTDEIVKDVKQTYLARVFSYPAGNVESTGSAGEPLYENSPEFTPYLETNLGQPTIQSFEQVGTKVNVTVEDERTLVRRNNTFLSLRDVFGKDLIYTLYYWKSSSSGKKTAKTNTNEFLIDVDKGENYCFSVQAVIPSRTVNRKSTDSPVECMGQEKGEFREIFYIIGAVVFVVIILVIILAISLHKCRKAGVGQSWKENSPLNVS
Summary of the method: as §1

[7] = target: T7, ACIN1 Apoptotic chromatin condensation inducer in the nucleus (Homo sapiens, UniProt Q9UKV3); conditions: 50 uM_231_sol_in vitro
T7 construct: endogenous in cells; host or cells: MDA-MB-231 lysate
T7 sequence (Q9UKV3 whole entry): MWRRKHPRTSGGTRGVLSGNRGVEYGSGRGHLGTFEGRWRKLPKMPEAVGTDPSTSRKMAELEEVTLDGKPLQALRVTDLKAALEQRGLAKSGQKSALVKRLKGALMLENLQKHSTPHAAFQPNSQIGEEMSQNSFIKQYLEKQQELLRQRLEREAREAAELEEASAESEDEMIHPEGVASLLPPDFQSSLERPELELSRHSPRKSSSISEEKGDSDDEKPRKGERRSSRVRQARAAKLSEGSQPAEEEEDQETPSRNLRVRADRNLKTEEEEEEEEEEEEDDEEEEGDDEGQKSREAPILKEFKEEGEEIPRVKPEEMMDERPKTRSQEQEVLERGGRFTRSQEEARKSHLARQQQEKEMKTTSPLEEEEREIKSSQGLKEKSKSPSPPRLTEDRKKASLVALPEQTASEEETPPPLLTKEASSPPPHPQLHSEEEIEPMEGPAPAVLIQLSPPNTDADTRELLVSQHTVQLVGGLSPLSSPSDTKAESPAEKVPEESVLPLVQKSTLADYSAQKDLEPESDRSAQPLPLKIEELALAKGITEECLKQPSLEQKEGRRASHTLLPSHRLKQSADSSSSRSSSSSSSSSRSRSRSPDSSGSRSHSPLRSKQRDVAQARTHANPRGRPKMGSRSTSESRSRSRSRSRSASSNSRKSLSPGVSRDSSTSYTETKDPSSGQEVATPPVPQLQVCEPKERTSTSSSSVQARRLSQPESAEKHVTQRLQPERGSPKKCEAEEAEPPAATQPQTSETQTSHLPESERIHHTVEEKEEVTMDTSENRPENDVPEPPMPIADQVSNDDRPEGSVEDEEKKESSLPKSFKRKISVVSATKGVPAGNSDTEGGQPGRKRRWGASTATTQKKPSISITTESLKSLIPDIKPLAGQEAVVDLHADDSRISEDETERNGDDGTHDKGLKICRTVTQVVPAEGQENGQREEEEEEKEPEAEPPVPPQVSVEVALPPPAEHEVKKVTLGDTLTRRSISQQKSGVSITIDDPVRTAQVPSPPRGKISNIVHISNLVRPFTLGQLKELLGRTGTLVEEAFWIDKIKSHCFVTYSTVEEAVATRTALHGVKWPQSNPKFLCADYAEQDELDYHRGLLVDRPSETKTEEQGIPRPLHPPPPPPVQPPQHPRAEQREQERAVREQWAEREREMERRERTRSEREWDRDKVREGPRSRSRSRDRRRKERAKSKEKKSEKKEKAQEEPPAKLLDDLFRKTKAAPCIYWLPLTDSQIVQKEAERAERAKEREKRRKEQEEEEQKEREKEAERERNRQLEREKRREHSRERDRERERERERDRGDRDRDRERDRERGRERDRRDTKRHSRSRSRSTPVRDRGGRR
Summary of the method: as §1

[8] = target: T8, EIF5A2 Eukaryotic translation initiation factor 5A-2 (Homo sapiens, UniProt Q9GZV4); conditions: 50 uM, in vitro
T8 construct: isoTOP-ABPP experiments performed in cell lysates (in vitro); endogenous in cells; host or cells: soluble proteome of human cancer cell lines (MDA-MB-231; Ramos and Jurkat also prepared)
T8 sequence (Q9GZV4 whole entry): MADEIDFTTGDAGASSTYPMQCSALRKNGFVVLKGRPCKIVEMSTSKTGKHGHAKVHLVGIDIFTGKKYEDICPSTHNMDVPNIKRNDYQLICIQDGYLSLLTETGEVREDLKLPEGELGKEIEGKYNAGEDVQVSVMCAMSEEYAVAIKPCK
Summary of the method: as §1

R value (DMSO/fragment) for probe 1 labeling ([1]; Q00765_K147, 50 uM, 231 sol, in vitro): 4.8
SMILES: Cn1cc(CC(=O)Oc2c(F)c(F)c(F)c(F)c2F)c2ccccc21 [fragment 22, Pentafluorophenyl 2-(1-methyl-1H-indol-3-yl)acetate]

SMILES: O=C(Oc1ccc([N+](=O)[O-])cc1[N+](=O)[O-])c1ccc(-c2ccccc2)cc1 [fragment 37, 2,4-Dinitrophenyl [1,1′-biphenyl]-4-carboxylate]
isoTOP-ABPP ratio (R) at liganded lysine P20248_K54 ([2]; sol, 231): 0.5

SMILES: COc1cc(CCC(=O)Oc2ccc([N+](=O)[O-])cc2[N+](=O)[O-])cc(OC)c1OC [fragment 33, 2,4-Dinitrophenyl 3-(3,4,5-trimethoxyphenyl)propanoate]
isoTOP-ABPP reactivity ratio at lysine P20248_K54 ([2]; 231 sol): 5.4
isoTOP-ABPP reactivity ratio at lysine P04181_K66 [3]: 1.0

R value (DMSO/fragment) for probe 1 labeling ([4]; O43837_K207, 50 uM, 231 sol, in vitro): 6.5
SMILES: O=C(Oc1c(F)c(F)c(F)c(F)c1F)C(c1ccccc1)c1ccccc1 [fragment 20, Pentafluorophenyl 2,2-diphenylacetate]

SMILES: O=C(Oc1ccc([N+](=O)[O-])cc1[N+](=O)[O-])c1ccc2ccccc2n1 [fragment 35, 2,4-Dinitrophenyl quinoline-2-carboxylate]
isoTOP-ABPP ratio (R) at liganded lysine Q0VFZ6_K312 ([5]; sol, 231): 14.4

SMILES: O=C(CCc1ccc2c(c1)OCO2)Oc1ccc([N+](=O)[O-])cc1[N+](=O)[O-] [fragment 45, 2,4-Dinitrophenyl 3-(benzo[d][1,3]dioxol-5-yl)propanoate]
isoTOP-ABPP ratio, lysine Q00765_K147 ([1]; 50 uM_231_sol_in vitro): 2.7
isoTOP-ABPP ratio, lysine P13726_K279 ([6]; 50 uM_231_sol_in vitro): 4.2

SMILES: O=C(ON1C(=O)CCC1=O)c1cc(C(F)(F)F)cc(C(F)(F)F)c1 [fragment 46, 3,5-Bis(trifluoromethyl)benzoic acid NHS ester]
isoTOP-ABPP ratio, lysine Q9UKV3_K103 [7]: 16.6

SMILES: O=C(Oc1ccc([N+](=O)[O-])cc1[N+](=O)[O-])c1ccc(Oc2ccccc2)cc1 [fragment 39, 2,4-Dinitrophenyl 4-phenoxybenzoate]
isoTOP-ABPP ratio (R) at liganded lysine Q00765_K147 ([1]; 50 uM, in vitro, sol, 231): 1.2
isoTOP-ABPP ratio (R) at liganded lysine P13726_K279 [6]: 1.8

SMILES: O=C(Oc1ccc([N+](=O)[O-])cc1[N+](=O)[O-])C(c1ccccc1)c1ccccc1 [fragment 30, 2,4-Dinitrophenyl 2,2-diphenylacetate]
isoTOP-ABPP reactivity ratio at lysine Q00765_K147 ([1]; 50 uM, 231 sol, in vitro): 20.0

SMILES: O=C(Oc1ccc([N+](=O)[O-])cc1[N+](=O)[O-])c1cc(C(F)(F)F)cc(C(F)(F)F)c1 [fragment 31, 2,4-Dinitrophenyl 3,5-bis(trifluoromethyl)benzoate]
isoTOP-ABPP reactivity ratio at lysine Q00765_K147 ([1]; 50 uM, 231 sol, in vitro): 3.0

SMILES: CC(=O)Oc1ccc([N+](=O)[O-])cc1[N+](=O)[O-] [fragment 43, 2,4-Dinitrophenyl acetate]
isoTOP-ABPP ratio (R) at liganded lysine P13726_K279 [6]: 1.1

R value (DMSO/fragment) for probe 1 labeling ([8]; Q9GZV4_K47, 231 sol): 5.0
R value (DMSO/fragment) for probe 1 labeling ([5]; Q0VFZ6_K312, 231 sol): 20.0
SMILES: O=C(Oc1c(F)c(F)c(F)c(F)c1F)c1cc(C(F)(F)F)cc(C(F)(F)F)c1 [fragment 21, Pentafluorophenyl 3,5-bis(trifluoromethyl)benzoate]

SMILES: Cn1cc(CC(=O)Oc2ccc([N+](=O)[O-])cc2[N+](=O)[O-])c2ccccc21 [fragment 32, 2,4-Dinitrophenyl 2-(1-methyl-1H-indol-3-yl)acetate]
isoTOP-ABPP reactivity ratio at lysine P04181_K66 [3]: 9.3

isoTOP-ABPP reactivity ratio at lysine P04181_K66 [3]: 0.6
SMILES: O=C(Oc1c(F)c(F)c(F)c(F)c1F)C1CCN(C(=O)OCc2ccccc2)CC1 [fragment 24, 1-Benzyl 4-(pentafluorophenyl) piperidine-1,4-dicarboxylate]

SMILES: N#Cc1ccc(C(=O)Oc2ccc([N+](=O)[O-])cc2[N+](=O)[O-])cc1 [fragment 44, 2,4-Dinitrophenyl 4-cyanobenzoate]
isoTOP-ABPP ratio, lysine Q9UKV3_K103 [7]: 1.0
isoTOP-ABPP ratio, lysine P13726_K279 ([6]; 50 uM_231_sol_in vitro): 1.1

SMILES: O=C(CC12CC3CC(CC(C3)C1)C2)Oc1ccc([N+](=O)[O-])cc1[N+](=O)[O-] [fragment 38, 2,4-Dinitrophenyl 2-(adamantan-1-yl)acetate]
isoTOP-ABPP ratio (R) at liganded lysine Q9GZV4_K47 ([8]; sol, 231): 1.8

isoTOP-ABPP ratio, lysine O43837_K207 ([4]; 100 uM_231_sol_in vitro): 3.1
isoTOP-ABPP ratio, lysine P13726_K279 ([6]; 100 uM_231_sol_in vitro): 1.0
isoTOP-ABPP ratio, lysine P04181_K66 ([3]; 100 uM_231_sol_in vitro): 9.9
SMILES: CC(C)(C)OC(=O)N=C(NC(=O)OC(C)(C)C)n1cccn1 [fragment 50, reference compound]
